Test results reported in the Kinase Knowledgebase extract (Sharma et al. 2016).

Molecular target: CDK2 (UniProt P24941)

With `O=C1c2ccccc2-c2n[nH]c3cccc1c23` the Kd was 3.2 µM.
